Test results published in patent publication US12661353B2, “SPT5 inhibitors and uses thereof” (Yeda Research and Development Co. Ltd., priority 2020, dated 2026).

Tests used:
His-Spt5 (fused to Spt4) = target: T1, His-Spt5 (fused to Spt4) (Homo sapiens, UniProt O00267); test: Binding assay by intrinsic fluorescence of purified His-Spt5 (fused to Spt4)
T1 construct: His-Rpb1 and His-Spt5 (fused to Spt4 to increase its stability) were each expressed in E. coli; Spt4 (fusion partner); His tag (N); made in house; host or cells: E. coli; purified on nickel agarose beads
Experimental: Binding assay—In order to measure binding of the indicated compound to Spt5 and/or Pol II; Spt5-Spt4 or Rpb1 fused to a histidine (His) tag were expressed in E. coli (SEQ ID Nos: 2-3, 5-6 and 81) and purified on nickel agarose beads as described in Ashkenazi et al. 2016. The proteins were incubated for 10 minutes with increasing concentrations of the indicated compound in a black 384 wells microplate in a total volume of 20 μl. Binding was assessed by measuring the changes in the intrinsic fluorescence (280 nm) using Cytation™ 5 (BioTek).
Two identified compounds, SPI-21 and SPI-18, were further validated for their direct interaction with either Spt5 or Rpb1 CC domain. […] Using the purified proteins, fluorescence intensity measurements were performed in the presence of increasing concentrations of SPI-21 or SPI-18. This method analyzes binding by monitoring the changes in the intrinsic fluorescence of the proteins as a consequence of conformational changes. […]
Direct interaction with either the Spt5 or the Rpb1 CC domain of SPI-21 and SPI-18 was further validated. […] Using the purified proteins, fluorescence intensity measurements were performed in the presence of increasing concentrations of SPI-21 and SPI-18. This method analyzes binding by monitoring the changes in the intrinsic fluorescence of the proteins as a consequence of conformational changes. […]

A20 mRNA = test: Splicing of A20: mature/immature transcripts, RT-qPCR; type: cell-based, human; settings: following TNFα induction, 50 μM
Experimental: Bars represent the mean of at least 3±SEM independent experiments. The asterisks denote statistical significance differences relative to DMSO+TNFα control according to Student's t tests (typically one tailed, paired): *p<0.05; **p<0.01; ***p<0.005; ****p<0.001. […] Shown are mRNA levels of A20 (normalized to GAPDH) in Hela cells treated with SPI-21 and TNFα and incubated with actinomycin D for the indicated time points, as determined by real-time qPCR. The data points present the mean of 3±SEM independent experiments. […] Shown are levels of mature and immature transcripts in cells incubated for 1 hour with DMSO (vehicle control) or 50 μM of SPI-21 or SPI-18 followed by treatment with TNFα for an additional one hour, as determined by real-time qPCR using primers spanning exons 3 and 4 (mature, black arrows shown in the scheme of G, SEQ ID NOs: 47 and 48) or intron 1 and exon 2 (immature, red arrows shown in the scheme of G, SEQ ID NOs: 49 and 50). […] DMSO (vehicle control), SPI-21 or SPI-18 treated cells were induced by TNFα for the indicated times and the levels of IκBα and β-Tubulin proteins were analyzed by western blot as indicated. […] The occupancy of the A20 gene was analyzed by qPCR using primers from the first (A, SEQ ID NOs: 55 and 56), third (B, SEQ ID NOs: 57 and 58) and last (C, SEQ ID NOs: 59 and 60) exon-intron junctions. […]

A20 gene = test: ChIP of Pol II and Spt5 occupancy of the A20 gene; type: cell-based, human; settings: for TNFα induction of Pol II and Spt5 levels at the A20 loci: TNFα+ 30 minutes; for Spt5 and Pol II occupancy at 3 loci of the A20 gene: basal conditions (TNFα-)
Experimental: Chromatin immunoprecipitation (ChIP)—HeLa cells were treated with DMSO (vehicle control) or the indicated compound (50 μM; 60 minutes), followed by TNF-α induction (30 minutes) in 100-mm plates. Following, the cells were cross-linked with 1% formaldehyde for 10 minutes at room temperature, and fixation was terminated by adding 1/20 volume of 2.5 M glycine.
Chromatin extraction and immunoprecipitation were carried out as previously described in Diamant et al., 2012. For immunoprecipitation (IP), 3 μg of anti-RNA polymerase II (ab817, Abcam) anti-Spt5 [previously described in Amir-Zilberstein et al., 2007] or control IgG (SC-2025, Santa Cruz Biotechnology) was added to 1 ml of the soluble chromatin DNA. IP and input samples were analyzed by qPCR as described above.
To further examine the impact of the identified SPIs on chromatin occupancy of Spt5 and Pol II, chromatin immunoprecipitation (ChIP) in the presence of DMSO, SPI-21 or SP-18 followed by 30 minutes TNFα treatment was performed. […] This finding is consistent with the increase in transcription under basal conditions exerted by SPI-21 but not by SPI-18 (FIG. 2A). Upon TNFα induction the levels of Pol II and Spt5 were dramatically elevated and this induction was diminished by both SPI-21 and SPI-18 at all the analyzed loci (FIG. 3G, TNFα+). This finding is consistent with the decrease in transcription under TNFα-induced conditions of both SPI-21 and SIP-18 (FIG. 3A).

Structure (SMILES): Nc1ccccc1SC(CC(=O)c1cccs1)c1cccs1 (centres unmarked) [SPI-18]
- IC50 (His-Spt5 (fused to Spt4)): 40 µM
- mature/immature A20 mRNA ratio (A20 mRNA): clear decrease in mature/immature ratio
- TNFα induction of Pol II and Spt5 levels at the A20 loci (A20 gene): diminished
- Spt5 and Pol II occupancy at 3 loci of the A20 gene (A20 gene): unchanged

Structure (SMILES): COc1ccc(C=CC(=O)c2cc(O)ccc2O)cc1 [SPI-21]
- effect on intrinsic fluorescence of Spt5 (His-Spt5 (fused to Spt4)): no significant effect
- mature/immature A20 mRNA ratio (A20 mRNA): clear decrease in mature/immature ratio
- TNFα induction of Pol II and Spt5 levels at the A20 loci (A20 gene): diminished
- Spt5 and Pol II occupancy at 3 loci of the A20 gene (A20 gene): moderate but significant enhancement
